Tests used:
USP1-UAF1 complex [1] = target: T1, USP1-UAF1 complex (Homo sapiens, UniProt O94782); settings: 1.2 µM
Description: (§1) Biochemical Assay: The compounds were evaluated for their potential to inhibit USP1-UAF1 complex (Boston Biochem, Catalog: E568-050) using a fluorescence-based assay. The final concentrations of USP1-UAF1 complex protein and substrate Ubiquitin-Rhodamine-110 (R&D systems, Catalog U-555-050) used in the assay were 0.45 and 150 nM respectively. 50 mM HEPES pH. 7.5, 100 mM NaCl, 0.5 mM EDTA, 1 mM TCEP, 10% BSA, 0.01% Tween 20 buffer was used in the assay. The total assay volume was 20 μL. […] The final DMSO concentration in the assay was 1%. The compounds were pre-incubated with USP1-UAF1 complex at 25° C. for 15 min. After preincubation, required concentration of substrate was added and incubated at 25° C. for 60 min. Fluorescence at Excitation: 485 nm, Emission: 535 nm was measured in Victor-5 from Perkin Elmer.
(§2) To determine IC50 values, dose response curves were generated by plotting percentage inhibition as a function of inhibitor concentration and the data was fitted to sigmoidal non-linear regression equation (variable slope) using Graph Pad prism software V8.
(§3) The compounds were screened by the above-mentioned assay procedure.

USP1-UAF1 complex [2] = target: T1, USP1-UAF1 complex; assay: biochemical
Description: as §1, §2, §3

T1 sequence (O94782 whole entry): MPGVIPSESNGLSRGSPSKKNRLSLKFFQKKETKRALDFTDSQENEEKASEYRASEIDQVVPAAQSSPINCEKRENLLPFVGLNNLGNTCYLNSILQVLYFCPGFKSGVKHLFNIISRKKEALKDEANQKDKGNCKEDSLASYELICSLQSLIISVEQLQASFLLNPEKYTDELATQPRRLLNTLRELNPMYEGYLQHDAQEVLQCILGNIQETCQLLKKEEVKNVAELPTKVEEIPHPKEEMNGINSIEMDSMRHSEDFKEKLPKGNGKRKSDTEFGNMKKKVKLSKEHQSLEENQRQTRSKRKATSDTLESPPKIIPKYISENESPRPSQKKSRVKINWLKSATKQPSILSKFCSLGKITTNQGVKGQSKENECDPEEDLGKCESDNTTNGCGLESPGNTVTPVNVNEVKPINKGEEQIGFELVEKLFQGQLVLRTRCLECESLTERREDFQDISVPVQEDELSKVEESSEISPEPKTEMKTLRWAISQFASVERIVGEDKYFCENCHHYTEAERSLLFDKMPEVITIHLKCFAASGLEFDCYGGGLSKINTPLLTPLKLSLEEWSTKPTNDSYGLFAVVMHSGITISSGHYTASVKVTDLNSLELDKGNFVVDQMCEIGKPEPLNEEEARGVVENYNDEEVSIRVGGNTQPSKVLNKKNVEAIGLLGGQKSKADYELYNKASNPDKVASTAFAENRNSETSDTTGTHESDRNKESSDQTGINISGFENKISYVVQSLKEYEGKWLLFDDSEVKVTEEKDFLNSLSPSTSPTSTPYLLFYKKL
T1 sequence (Q8TAF3 whole entry partner): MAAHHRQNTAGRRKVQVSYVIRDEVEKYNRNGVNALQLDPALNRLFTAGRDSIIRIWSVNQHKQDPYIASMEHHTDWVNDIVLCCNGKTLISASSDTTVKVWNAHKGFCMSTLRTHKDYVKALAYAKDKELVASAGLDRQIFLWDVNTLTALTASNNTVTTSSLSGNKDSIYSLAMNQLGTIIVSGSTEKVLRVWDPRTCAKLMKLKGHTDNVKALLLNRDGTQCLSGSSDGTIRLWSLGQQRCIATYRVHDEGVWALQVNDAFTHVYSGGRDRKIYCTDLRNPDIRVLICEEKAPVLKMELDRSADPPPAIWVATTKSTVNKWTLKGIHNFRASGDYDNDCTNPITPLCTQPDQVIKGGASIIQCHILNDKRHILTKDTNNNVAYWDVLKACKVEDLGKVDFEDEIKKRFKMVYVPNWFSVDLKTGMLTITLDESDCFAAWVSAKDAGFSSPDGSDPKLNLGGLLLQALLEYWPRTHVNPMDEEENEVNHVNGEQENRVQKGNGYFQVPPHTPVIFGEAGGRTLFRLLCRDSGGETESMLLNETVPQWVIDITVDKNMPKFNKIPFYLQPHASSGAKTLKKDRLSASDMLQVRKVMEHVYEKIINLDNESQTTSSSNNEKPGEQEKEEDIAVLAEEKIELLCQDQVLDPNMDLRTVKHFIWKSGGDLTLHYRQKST

Molecule `COc1ncnc(C2CC2)c1-c1n[nH]c2c1CN(c1ccc(-c3nc(C(F)(F)F)cn3C)cn1)CC2` [Compound 54, 3-(4-cyclopropyl-6-methoxypyrimidin-5-yl)-5-(5-(1-methyl-4-(trifluoromethyl)-1H-imidazol-2-yl)pyridin-2-yl)-4,5,6,7-tetrahydro-1H-pyrazolo[4,3-c]pyridine] has an inhibition (USP1-UAF1 complex [1]) of 91% and an IC50 (USP1-UAF1 complex [2]) of over 0.1 µM.

`COc1ncnc(C2CC2)c1-c1nn(Cc2ccccc2)c2c1CN(c1ccc(-c3nc(C(F)(F)F)cn3C)cn1)CC2` [Compound 37, 1-benzyl-3-(4-cyclopropyl-6-methoxypyrimidin-5-yl)-5-(5-(1-methyl-4-(trifluoromethyl)-1H-imidazol-2-yl)pyridin-2-yl)-4,5,6,7-tetrahydro-1H-pyrazolo[4,3-c]pyridine] gave an inhibition (USP1-UAF1 complex [1]) of 98% and an IC50 (USP1-UAF1 complex [2]) of 0.05 to 0.1 µM.

In the case of `COc1ncnc(C2CC2)c1-c1nn(C)c2c1CN(c1ccc(-c3nc(Cl)cn3C)cc1)CC2` [Compound 21, 5-(4-(4-chloro-1-methyl-1H-imidazol-2-yl)phenyl)-3-(4-cyclopropyl-6-methoxypyrimidin-5-yl)-1-methyl-4,5,6,7-tetrahydro-1H-pyrazolo[4,3-c]pyridine], the inhibition (USP1-UAF1 complex [1]) is reported as 97% and the IC50 (USP1-UAF1 complex [2]) is reported as under 0.05 µM.

Work on `COc1ncnc(C2CC2)c1-c1nn(C)c2c1CN(c1ccc(-c3nc(C(F)(F)F)cn3CCN(C)C)cc1)CC2` [Compound 10, 2-(2-(4-(3-(4-cyclopropyl-6-methoxypyrimidin-5-yl)-1-methyl-1,4,6,7-tetrahydro-5H-pyrazolo[4,3-c]pyridin-5-yl)phenyl)-4-(trifluoromethyl)-1H-imidazol-1-yl)-N,N-dimethylethan-1-amine] yielded an inhibition (USP1-UAF1 complex [1]) of 88% and an IC50 (USP1-UAF1 complex [2]) of over 0.1 µM.

Molecule `COc1ncnc(C2CC2)c1-c1nn(C)c2c1CN(c1ccc(-c3nc(C(F)(F)F)cn3C3CNC3)cc1)CC2` [Compound 55, 5-(4-(1-(azetidin-3-yl)-4-(trifluoromethyl)-1H-imidazol-2-yl)phenyl)-3-(4-cyclopropyl-6-methoxypyrimidin-5-yl)-1-methyl-4,5,6,7-tetrahydro-1H-pyrazolo[4,3-c]pyridine] has an inhibition (USP1-UAF1 complex [1]) of 87% and an IC50 (USP1-UAF1 complex [2]) of over 0.1 µM.

With `COc1ncnc(C2CC2)c1-c1nn(C(C)C)c2c1CN(c1ccc(-c3nc(C(F)(F)F)cn3C)nc1)CC2` [Compound 28, 3-(4-cyclopropyl-6-methoxypyrimidin-5-yl)-1-isopropyl-5-(6-(1-methyl-4-(trifluoromethyl)-1H-imidazol-2-yl)pyridin-3-yl)-4,5,6,7-tetrahydro-1H-pyrazolo[4,3-c]pyridine] the inhibition (USP1-UAF1 complex [1]) was 90% and the IC50 (USP1-UAF1 complex [2]) was over 0.1 µM.

`COc1ncnc(C2CC2)c1-c1nn(C)c2c1CN(c1ccc(-c3nc(C(F)(F)F)cn3C(C)C)cn1)CC2` [Compound 15, 3-(4-cyclopropyl-6-methoxypyrimidin-5-yl)-5-(5-(1-isopropyl-4-(trifluoromethyl)-1H-imidazol-2-yl)pyridin-2-yl)-1-methyl-4,5,6,7-tetrahydro-1H-pyrazolo[4,3-c]pyridine] showed an inhibition (USP1-UAF1 complex [1]) of 96% and an IC50 (USP1-UAF1 complex [2]) of 0.05 to 0.1 µM.

Molecule `COc1ncnc(C2CC2)c1-c1nn(C)c2c1CN(c1ccc(-c3nc(C(F)(F)F)cn3C)c(N(C)C)c1)CC2` [Compound 48, 5-(3-(4-cyclopropyl-6-methoxypyrimidin-5-yl)-1-methyl-1,4,6,7-tetrahydro-5H-pyrazolo[4,3-c]pyridin-5-yl)-N,N-dimethyl-2-(1-methyl-4-(trifluoromethyl)-1H-imidazol-2-yl)aniline] has an inhibition (USP1-UAF1 complex [1]) of 97% and an IC50 (USP1-UAF1 complex [2]) of 0.05 to 0.1 µM.

In the case of `CCOc1ncnc(C2CC2)c1-c1nn(C)c2c1CN(c1ccc(-c3nc(C(F)(F)F)cn3C)cc1)CC2` [Compound 58, 3-(4-cyclopropyl-6-ethoxypyrimidin-5-yl)-1-methyl-5-(4-(1-methyl-4-(trifluoromethyl)-1H-imidazol-2-yl)phenyl)-4,5,6,7-tetrahydro-1H-pyrazolo[4,3-c]pyridine], the inhibition (USP1-UAF1 complex [1]) is reported as 98% and the IC50 (USP1-UAF1 complex [2]) is reported as under 0.05 µM.

For `CCn1nc(-c2c(OC)ncnc2C2CC2)c2c1CCN(c1ccc(-c3nc(C(F)(F)F)cn3C)cc1)C2` [Compound 24, 3-(4-cyclopropyl-6-methoxypyrimidin-5-yl)-1-ethyl-5-(4-(1-methyl-4-(trifluoromethyl)-1H-imidazol-2-yl)phenyl)-4,5,6,7-tetrahydro-1H-pyrazolo[4,3-c]pyridine], the inhibition (USP1-UAF1 complex [1]) was 98% and the IC50 (USP1-UAF1 complex [2]) was under 0.05 µM.

`COc1ncnc(C2CC2)c1-c1nn(C)c2c1CN(c1ccc(-c3nc(C(F)(F)F)cn3C3CN(C)C3)cc1)CC2` [Compound 11, 3-(4-cyclopropyl-6-methoxypyrimidin-5-yl)-1-methyl-5-(4-(1-(1-methylazetidin-3-yl)-4-(trifluoromethyl)-1H-imidazol-2-yl)phenyl)-4,5,6,7-tetrahydro-1H-pyrazolo[4,3-c]pyridine] gave an inhibition (USP1-UAF1 complex [1]) of 86% and an IC50 (USP1-UAF1 complex [2]) of over 0.1 µM.

Work on `CC(C)c1ncccc1-c1nn(C)c2c1CN(c1ccc(-c3nc(C(F)(F)F)cn3C)cc1)CC2` [Compound 3, 3-(2-isopropylpyridin-3-yl)-1-methyl-5-(4-(1-methyl-4-(trifluoromethyl)-1H-imidazol-2-yl)phenyl)-4,5,6,7-tetrahydro-1H-pyrazolo[4,3-c]pyridine] yielded an inhibition (USP1-UAF1 complex [1]) of 99% and an IC50 (USP1-UAF1 complex [2]) of under 0.05 µM.

For `COCCn1cc(C(F)(F)F)nc1-c1ccc(N2CCc3c(c(-c4c(OC)ncnc4C4CC4)nn3C)C2)cc1` [Compound 9, 3-(4-cyclopropyl-6-methoxypyrimidin-5-yl)-5-(4-(1-(2-methoxyethyl)-4-(trifluoromethyl)-1H-imidazol-2-yl)phenyl)-1-methyl-4,5,6,7-tetrahydro-1H-pyrazolo[4,3-c]pyridine], the inhibition (USP1-UAF1 complex [1]) was 99% and the IC50 (USP1-UAF1 complex [2]) was under 0.05 µM.

`Cc1cnn(C(C)C)c1-c1nn(C)c2c1CN(c1ccc(-c3nc(C(F)(F)F)cn3C)nc1)CC2` [Compound 62, 3-(1-isopropyl-4-methyl-1H-pyrazol-5-yl)-1-methyl-5-(6-(1-methyl-4-(trifluoromethyl)-1H-imidazol-2-yl)pyridin-3-yl)-4,5,6,7-tetrahydro-1H-pyrazolo[4,3-c]pyridine] was tested, and the inhibition (USP1-UAF1 complex [1]) was 95% and the IC50 (USP1-UAF1 complex [2]) was 0.05 to 0.1 µM.

`COc1ncnc(C2CC2)c1-c1nn(C(C)C)c2c1CN(c1ccc(-c3nc(C(F)(F)F)cn3C)cn1)CC2` [Compound 29, 3-(4-cyclopropyl-6-methoxypyrimidin-5-yl)-1-isopropyl-5-(5-(1-methyl-4-(trifluoromethyl)-1H-imidazol-2-yl)pyridin-2-yl)-4,5,6,7-tetrahydro-1H-pyrazolo[4,3-c]pyridine] gave an inhibition (USP1-UAF1 complex [1]) of 90% and an IC50 (USP1-UAF1 complex [2]) of over 0.1 µM.

With `COc1ncnc(C2CC2)c1-c1nn(C)c2c1CN(c1cnc(-c3nc(C(F)(F)F)cn3C)cn1)CC2` [Compound 52, 3-(4-cyclopropyl-6-methoxypyrimidin-5-yl)-1-methyl-5-(5-(1-methyl-4-(trifluoromethyl)-1H-imidazol-2-yl)pyrazin-2-yl)-4,5,6,7-tetrahydro-1H-pyrazolo[4,3-c]pyridine] the inhibition (USP1-UAF1 complex [1]) was 96% and the IC50 (USP1-UAF1 complex [2]) was 0.05 to 0.1 µM.

Molecule `COc1ncccc1-c1ccc(N2CCc3c(c(-c4c(OC)ncnc4C4CC4)nn3C)C2)nc1` [Compound 22, 3-(4-cyclopropyl-6-methoxypyrimidin-5-yl)-5-(2'-methoxy-[3,3′-bipyridin]-6-yl)-1-methyl-4,5,6,7-tetrahydro-1H-pyrazolo[4,3-c]pyridine] has an inhibition (USP1-UAF1 complex [1]) of 39% and an IC50 (USP1-UAF1 complex [2]) of over 0.1 µM.

`COc1ncnc(C2CC2)c1-c1nn(C(C)C)c2c1CN(c1ccc(-c3nc(C(F)(F)F)cn3C)cc1)CC2` [Compound 27, 3-(4-cyclopropyl-6-methoxypyrimidin-5-yl)-1-isopropyl-5-(4-(1-methyl-4-(trifluoromethyl)-1H-imidazol-2-yl)phenyl)-4,5,6,7-tetrahydro-1H-pyrazolo[4,3-c]pyridine] was tested, and the inhibition (USP1-UAF1 complex [1]) was 98% and the IC50 (USP1-UAF1 complex [2]) was under 0.05 µM.

With `COc1ncnc(C2CC2)c1-c1nn(C)c2c1CN(c1ccc(-c3nc(C(F)(F)F)cn3C)nc1)CC2` [Compound 12, 3-(4-cyclopropyl-6-methoxypyrimidin-5-yl)-1-methyl-5-(6-(1-methyl-4-(trifluoromethyl)-1H-imidazol-2-yl)pyridin-3-yl)-4,5,6,7-tetrahydro-1H-pyrazolo[4,3-c]pyridine] the inhibition (USP1-UAF1 complex [1]) was 98% and the IC50 (USP1-UAF1 complex [2]) was under 0.05 µM.

`COc1ncnc(C2CC2)c1-c1nn(C)c2c1CN(c1csc(-c3nc(C(F)(F)F)cn3C)n1)CC2` [Compound 50, 4-(3-(4-cyclopropyl-6-methoxypyrimidin-5-yl)-1-methyl-1,4,6,7-tetrahydro-5H-pyrazolo[4,3-c]pyridin-5-yl)-2-(1-methyl-4-(trifluoromethyl)-1H-imidazol-2-yl)thiazole] was tested, and the inhibition (USP1-UAF1 complex [1]) was 20% and the IC50 (USP1-UAF1 complex [2]) was over 0.1 µM.

With `COc1ncnc(C2CC2)c1-c1nn(C)c2c1CN(c1csc(-c3nc(C(F)(F)F)cn3C)c1)CC2` [Compound 49, 3-(4-cyclopropyl-6-methoxypyrimidin-5-yl)-1-methyl-5-(5-(1-methyl-4-(trifluoromethyl)-1H-imidazol-2-yl)thiophen-3-yl)-4,5,6,7-tetrahydro-1H-pyrazolo[4,3-c]pyridine] the inhibition (USP1-UAF1 complex [1]) was 14% and the IC50 (USP1-UAF1 complex [2]) was over 0.1 µM.

For `CCOc1cc(C(F)(F)F)nn1-c1ccc(N2CCc3c(c(-c4c(OC)ncnc4C4CC4)nn3C)C2)cc1` [Compound 20, 3-(4-cyclopropyl-6-methoxypyrimidin-5-yl)-5-(4-(5-ethoxy-3-(trifluoromethyl)-1H-pyrazol-1-yl)phenyl)-1-methyl-4,5,6,7-tetrahydro-1H-pyrazolo[4,3-c]pyridine], the inhibition (USP1-UAF1 complex [1]) was 99% and the IC50 (USP1-UAF1 complex [2]) was under 0.05 µM.

For `COc1ncnc(C2CC2)c1-c1nn(C2CCC2)c2c1CN(c1ccc(-c3nc(C(F)(F)F)cn3C)cc1)CC2` [Compound 33, 1-cyclobutyl-3-(4-cyclopropyl-6-methoxypyrimidin-5-yl)-5-(4-(1-methyl-4-(trifluoromethyl)-1H-imidazol-2-yl)phenyl)-4,5,6,7-tetrahydro-1 H-pyrazolo[4,3-c]pyridine], the inhibition (USP1-UAF1 complex [1]) was 90% and the IC50 (USP1-UAF1 complex [2]) was 0.05 to 0.1 µM.

Work on `COc1cccc(C2CC2)c1-c1nn(C)c2c1CN(c1ccc(-c3nc(C(F)(F)F)cn3C)cc1)CC2` [Compound 2, 3-(2-cyclopropyl-6-methoxyphenyl)-1-methyl-5-(4-(1-methyl-4-(trifluoromethyl)-1H-imidazol-2-yl)phenyl)-4,5,6,7-tetrahydro-1H-pyrazolo[4,3-c]pyridine] yielded an IC50 (USP1-UAF1 complex [2]) of under 0.05 µM.
